# Test results from ChEMBL document CHEMBL1122552, “Synthesis and biological evaluation of 6-amino-1H-pyrrolo[3,2-c]pyridin-4(5H)-one (3,7-dideazaguanine)” (1984).
# Test system: Vaccinia virus
# Assay: The minimum inhibitory concentration required to reduce vaccinia virus induced cytopathogenicity in primary rabbit kidney cells by 50%
# Type: functional
# Conditions: Orthopoxvirus vaccinia
row,Structure (SMILES),MIC [µg/mL]
1,Nc1cc2[nH]ccc2c(O)n1,400
2,NC(=O)c1ncn([C@@H]2O[C@H](CO)[C@@H](O)[C@H]2O)n1 [RIBAVIRIN],40
3,Nc1ncnc2c1ncn2C[C@H](O)CO [(S)-DHPA],10
4,Nc1cc2[nH]cnc2c(=O)[nH]1 [DEZAGUANINE],0.1
